Reference: PubChem BioAssay AID1963425 (Molecular Pharmacology Branch, DTP, NCI, 2024)

Test system: 323965-272-R-J2-PDC complex spheroid growth, % test/control
Test: Anticancer human tumor 323965-272-R-J2-PDC patient-derived pancreatic carcinoma cell line growth inhibition [Asc]
Details: for IC50: curve of first compound; for viability, T/C: stronger effect = lower value; active means viability on the fitted dose curve at most 10% of control; inactive means the rest
Outline: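 Complex spheroids combining tumor cells with HUVEC endothelial cells and human MSCs, at 37 degrees C, 5% CO2; agents tested alone or combined, half-log dilutions from at or near clinical Cmax, or 10 microM if Cmax unknown.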

[1] = second compound 0.00949 µM, first compound 0.0316 µM
[2] = second compound 0.00949 µM, first compound 0.1 µM
[3] = second compound 0.00949 µM, first compound 0.316 µM
[4] = second compound 0.00949 µM, first compound 1 µM
[5] = second compound 0.00949 µM, first compound 3.16 µM
[6] = second compound 0.00949 µM, first compound 10 µM
[7] = second compound 0.03 µM, first compound 0.0316 µM
[8] = second compound 0.03 µM, first compound 0.1 µM
[9] = second compound 0.03 µM, first compound 0.316 µM
[10] = second compound 0.03 µM, first compound 1 µM
[11] = second compound 0.03 µM, first compound 3.16 µM
[12] = second compound 0.03 µM, first compound 10 µM
[13] = second compound 0.0949 µM, first compound 0.0316 µM
[14] = second compound 0.0949 µM, first compound 0.1 µM
[15] = second compound 0.0949 µM, first compound 0.316 µM
[16] = second compound 0.0949 µM, first compound 1 µM
[17] = second compound 0.0949 µM, first compound 3.16 µM
[18] = second compound 0.0949 µM, first compound 10 µM
[19] = second compound 0.3 µM, first compound 0.0316 µM
[20] = second compound 0.3 µM, first compound 0.1 µM
[21] = second compound 0.3 µM, first compound 0.316 µM
[22] = second compound 0.3 µM, first compound 1 µM
[23] = second compound 0.3 µM, first compound 3.16 µM
[24] = second compound 0.3 µM, first compound 10 µM
[25] = second compound 0.949 µM, first compound 0.0316 µM
[26] = second compound 0.949 µM, first compound 0.1 µM
[27] = second compound 0.949 µM, first compound 0.316 µM
[28] = second compound 0.949 µM, first compound 1 µM
[29] = second compound 0.949 µM, first compound 3.16 µM
[30] = second compound 0.949 µM, first compound 10 µM
[31] = second compound 3 µM, first compound 0.0316 µM
[32] = second compound 3 µM, first compound 0.1 µM
[33] = second compound 3 µM, first compound 0.316 µM
[34] = second compound 3 µM, first compound 1 µM
[35] = second compound 3 µM, first compound 3.16 µM
[36] = second compound 3 µM, first compound 10 µM
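Further: compound exposure lasted 7 days starting three days after spheroid seeding.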
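Wherever viability, T/C is given: 100% = DMSO vehicle control wells with viability set relative to vehicle.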

C#Cc1c(F)ccc2cc(O)cc(-c3ncc4c(N5CC6CCC(C5)N6)nc(OCC56CCCN5CC(F)C6)nc4c3F)c12 (stereo not drawn) + CCN1C(C(=O)NC23CCC(C(=O)O)(CC2)CC3)C(c2cccc(Cl)c2F)C2(C(=O)Nc3cc(Cl)ccc32)C12CCCCC2
inactive: viability, T/C [1] 100% | viability, T/C [2] 100% | viability, T/C [3] 98.2% | viability, T/C [4] 92.6% | viability, T/C [5] 81.2% | viability, T/C [6] 59.4% | viability, T/C [7] 107% | viability, T/C [8] 102% | viability, T/C [9] 102% | viability, T/C [10] 106% | viability, T/C [11] 83.8% | viability, T/C [12] 63.1% | viability, T/C [13] 104% | viability, T/C [14] 108% | viability, T/C [15] 94.1% | viability, T/C [16] 88.9% | viability, T/C [17] 70.8% | viability, T/C [18] 64.2% | viability, T/C [19] 105% | viability, T/C [20] 110% | viability, T/C [21] 112% | viability, T/C [22] 91.9% | viability, T/C [23] 78.6% | viability, T/C [24] 59.8% | viability, T/C [25] 101% | viability, T/C [26] 104% | viability, T/C [27] 102% | viability, T/C [28] 89.7% | viability, T/C [29] 79.3% | viability, T/C [30] 64.8% | viability, T/C [31] 102% | viability, T/C [32] 102% | viability, T/C [33] 97.8% | viability, T/C [34] 84.7% | viability, T/C [35] 63.1% | viability, T/C [36] 67.9%
> 10 µM: IC50 (second compound 0.00949 µM) | IC50 (second compound 0.03 µM) | IC50 (second compound 0.0949 µM) | IC50 (second compound 0.3 µM) | IC50 (second compound 0.949 µM) | IC50 (second compound 3 µM)

C=C(F)C(=O)N1CCN(c2nc(OCC3CCCN3C)nc3c2CCN(c2cccc4cccc(Cl)c24)C3)CC1CC#N (stereo not drawn) + CCN1C(C(=O)NC23CCC(C(=O)O)(CC2)CC3)C(c2cccc(Cl)c2F)C2(C(=O)Nc3cc(Cl)ccc32)C12CCCCC2
5.21 µM: IC50 (second compound 0.949 µM)
inactive: viability, T/C [1] 62.2% | viability, T/C [2] 64% | viability, T/C [3] 61.5% | viability, T/C [4] 58.6% | viability, T/C [5] 85.7% | viability, T/C [6] 32.8% | viability, T/C [7] 79% | viability, T/C [8] 65.3% | viability, T/C [9] 59.7% | viability, T/C [10] 61.2% | viability, T/C [11] 81.8% | viability, T/C [12] 30.2% | viability, T/C [13] 73.4% | viability, T/C [14] 60% | viability, T/C [15] 60.5% | viability, T/C [16] 63.7% | viability, T/C [17] 74.3% | viability, T/C [18] 33.5% | viability, T/C [19] 81.1% | viability, T/C [20] 64.4% | viability, T/C [21] 65% | viability, T/C [22] 66.3% | viability, T/C [23] 74.8% | viability, T/C [24] 31.8% | viability, T/C [25] 73.4% | viability, T/C [26] 65.9% | viability, T/C [27] 63.8% | viability, T/C [28] 62.7% | viability, T/C [29] 83.8% | viability, T/C [30] 24.1% | viability, T/C [31] 70.7% | viability, T/C [32] 57% | viability, T/C [33] 61% | viability, T/C [34] 71.9% | viability, T/C [35] 82.3% | viability, T/C [36] 13.8%
5.79 µM: IC50 (second compound 0.3 µM)
5.59 µM: IC50 (second compound 0.03 µM)
5.62 µM: IC50 (second compound 0.0949 µM)
> 10 µM: IC50 (second compound 0.00949 µM)
4.67 µM: IC50 (second compound 3 µM)

C=CC(=O)N1CCN(c2nc(=O)n(-c3c(C)ccnc3C(C)C)c3nc(-c4c(O)cccc4F)c(F)cc23)C(C)C1 (stereo not drawn) + CCN1C(C(=O)NC23CCC(C(=O)O)(CC2)CC3)C(c2cccc(Cl)c2F)C2(C(=O)Nc3cc(Cl)ccc32)C12CCCCC2
> 10 µM: IC50 (second compound 0.00949 µM) | IC50 (second compound 0.03 µM) | IC50 (second compound 0.0949 µM) | IC50 (second compound 0.3 µM) | IC50 (second compound 0.949 µM) | IC50 (second compound 3 µM)
inactive: viability, T/C [1] 82% | viability, T/C [2] 73.5% | viability, T/C [3] 60.5% | viability, T/C [4] 64.8% | viability, T/C [5] 68.7% | viability, T/C [6] 59.1% | viability, T/C [7] 75.4% | viability, T/C [8] 70.1% | viability, T/C [9] 68.7% | viability, T/C [10] 68.7% | viability, T/C [11] 65.8% | viability, T/C [12] 65.6% | viability, T/C [13] 80.7% | viability, T/C [14] 67.2% | viability, T/C [15] 62.8% | viability, T/C [16] 73% | viability, T/C [17] 66.2% | viability, T/C [18] 61.8% | viability, T/C [19] 75.1% | viability, T/C [20] 73.2% | viability, T/C [21] 65.6% | viability, T/C [22] 60.9% | viability, T/C [23] 67.7% | viability, T/C [24] 63.2% | viability, T/C [25] 84.7% | viability, T/C [26] 68.3% | viability, T/C [27] 62.8% | viability, T/C [28] 69.8% | viability, T/C [29] 73.7% | viability, T/C [30] 61.7% | viability, T/C [31] 79.3% | viability, T/C [32] 71.5% | viability, T/C [33] 61% | viability, T/C [34] 68.1% | viability, T/C [35] 65.8% | viability, T/C [36] 58.6%

CNC(C)C(=O)NC1CN(S(=O)(=O)c2cccc(S(=O)(=O)N3CCC4CCC(C(=O)NC(c5ccccc5)c5ccccc5)N4C(=O)C(NC(=O)C(C)NC)C3)c2)CCC2CCC(C(=O)NC(c3ccccc3)c3ccccc3)N2C1=O (stereo not drawn) + CCN1C(C(=O)NC23CCC(C(=O)O)(CC2)CC3)C(c2cccc(Cl)c2F)C2(C(=O)Nc3cc(Cl)ccc32)C12CCCCC2
> 1 µM: IC50 (second compound 0.00949 µM) | IC50 (second compound 0.03 µM) | IC50 (second compound 0.0949 µM) | IC50 (second compound 0.3 µM) | IC50 (second compound 0.949 µM) | IC50 (second compound 3 µM)
inactive: viability, T/C (second compound 0.00949 µM, first compound 0.00316 µM) 110% | viability, T/C (second compound 0.00949 µM, first compound 0.01 µM) 106% | viability, T/C [1] 96.8% | viability, T/C [2] 103% | viability, T/C [3] 109% | viability, T/C [4] 105% | viability, T/C (second compound 0.03 µM, first compound 0.00316 µM) 102% | viability, T/C (second compound 0.03 µM, first compound 0.01 µM) 99% | viability, T/C [7] 105% | viability, T/C [8] 105% | viability, T/C [9] 113% | viability, T/C [10] 106% | viability, T/C (second compound 0.0949 µM, first compound 0.00316 µM) 118% | viability, T/C (second compound 0.0949 µM, first compound 0.01 µM) 103% | viability, T/C [13] 103% | viability, T/C [14] 95% | viability, T/C [15] 106% | viability, T/C [16] 99.5% | viability, T/C (second compound 0.3 µM, first compound 0.00316 µM) 123% | viability, T/C (second compound 0.3 µM, first compound 0.01 µM) 113% | viability, T/C [19] 107% | viability, T/C [20] 92.8% | viability, T/C [21] 104% | viability, T/C [22] 102% | viability, T/C (second compound 0.949 µM, first compound 0.00316 µM) 112% | viability, T/C (second compound 0.949 µM, first compound 0.01 µM) 107% | viability, T/C [25] 96.2% | viability, T/C [26] 104% | viability, T/C [27] 95.1% | viability, T/C [28] 88.5% | viability, T/C (second compound 3 µM, first compound 0.00316 µM) 98.9% | viability, T/C (second compound 3 µM, first compound 0.01 µM) 109% | viability, T/C [31] 90.3% | viability, T/C [32] 101% | viability, T/C [33] 89.5% | viability, T/C [34] 95.2%
